Earlier results as cited in PubChem BioAssay AID1259409 (Chemical Carcinogenesis Research Information System (CCRIS), 2018).

Tested on: rodent chemically induced tumor inhibition, incidence and multiplicity
Assay: CCRIS tumor inhibitor studies

SMILES: O=C1O[C@H]([C@@H](O)CO)C(O)=C1O
- tumour outcome (control, treated, inhibition, significance) (Carcinogen: 7,12-DIMETHYLBENZ[A]ANTHRACENE, 57-97-6, Dose [Inhibitor]: 0, 5000 PPM IN DRINKING WATER FOR 5 MO (STUDY DURATION: 5 MO), Route [Inhibitor]: ORAL, Species: RAT, Strain/Sex: SWISS/FEMALE, Target Tissue: Type of Lesion: MAMMARY GLAND: CRIBRIFORM CARCINOMA, Dose [Carcinogen]: 10 MG ONCE, Promoter: NONE USED): 85%, 50%, 41%, not calculated
- tumour outcome (control, treated, inhibition, significance) (Carcinogen: 7,12-DIMETHYLBENZ[A]ANTHRACENE, 57-97-6, Dose [Inhibitor]: 0.2% IN 0.25 ML OF 20:80 WATER-ACETONE DAILY FOR 20 D BEGINNING 1 D POST CARCINOGEN TREATMENT (STUDY DURATION: 19 WK), Route [Inhibitor]: DERMAL, Species: MOUSE, Strain/Sex: ICR/FEMALE, Target Tissue: Type of Lesion: SKIN: PAPILLOMA, Dose [Carcinogen]: 0.125 MG IN 0.25 ML ACETONE ONCE, Promoter: CROTON OIL, 8001-28-3): 43%, 48%, -12%, not significant
- tumour outcome (control, treated, inhibition, significance) (Carcinogen: 7,12-DIMETHYLBENZ[A]ANTHRACENE, 57-97-6, Dose [Inhibitor]: 1000 UG APPLIED ONCE 5 MIN PRIOR TO CARCINOGEN DOSE (STUDY DURATION: 28 WK), Route [Inhibitor]: DERMAL, Species: MOUSE, Strain/Sex: CD-1/FEMALE, Target Tissue: Type of Lesion: SKIN: PAPILLOMA, Dose [Carcinogen]: 2.56 UG ONCE, Promoter: 12-O-TETRADECANOYLPHORBOL-13-ACETATE, 16561-29-8): 82%, 56%, 32%, not calculated
- tumour outcome (control, treated, inhibition, significance) (Carcinogen: 17BETA-ESTRADIOL, 50-28-2, Dose [Inhibitor]: 1% (W/V) IN REVERSED OSMOSIS DEIONIZED DRINKING WATER FOR 103 D STARTING 93 D AFTER START OF STUDY (STUDY DURATION: 196, Route [Inhibitor]: ORAL, Species: HAMSTER, Strain/Sex: SYRIAN/MALE, Target Tissue: Type of Lesion: KIDNEY: CARCINOMA, Dose [Carcinogen]: 90% OF 31 MG PELLET AT START OF STUDY AND 90% OF 45 MG PELLET 3 MO LATER, Promoter: NONE USED): 16/23 (70%), 9/19 (47%), 33%, not significant
- tumour outcome (control, treated, inhibition, significance) (Carcinogen: 17BETA-ESTRADIOL, 50-28-2, Dose [Inhibitor]: 1% (W/V) IN REVERSED OSMOSIS DEIONIZED DRINKING WATER FOR FIRST 92 D OF STUDY (STUDY DURATION: 196 D), Route [Inhibitor]: ORAL, Species: HAMSTER, Strain/Sex: SYRIAN/MALE, Target Tissue: Type of Lesion: KIDNEY: CARCINOMA, Dose [Carcinogen]: 90% OF 31 MG PELLET AT START OF STUDY AND 90% OF 45 MG PELLET 3 MO LATER, Promoter: NONE USED): 16/23 (70%), 15/17 (88%), -26%, not significant
- tumour outcome (control, treated, inhibition, significance) (Carcinogen: 17BETA-ESTRADIOL, 50-28-2, Dose [Inhibitor]: 1% IN REVERSED OSMOSIS DEIONIZED DRINKING WATER FOR DURATION OF STUDY (STUDY DURATION: 196 D), Route [Inhibitor]: ORAL, Species: HAMSTER, Strain/Sex: SYRIAN/MALE, Target Tissue: Type of Lesion: KIDNEY: CARCINOMA, Dose [Carcinogen]: 90% OF 31 MG PELLET AT START OF STUDY AND 90% OF 45 MG PELLET 3 MO LATER, Promoter: NONE USED): 16/23 (70%), 10/33 (30%), 57%, p<0.005
- tumour outcome (control, treated, inhibition, significance) (Carcinogen: AMINOPYRENE, 1606-67-3, SODIUM NITRITE, 7632-00-0, Carcinogen: AMINOPYRENE, 1606-67-3, SODIUM NITRITE, 7632-00-0, Dose [Inhibitor]: 7 G/KG OF DIET FOR DURATION OF STUDY (STUDY DURATION: 40 WK), Route [Inhibitor]: ORAL, Species: RAT, Strain/Sex: SPRAGUE-DAWLEY/MALE, Target Tissue: Type of Lesion: LIVER: TUMORS, Dose [Carcinogen]: AMINOPYRENE 1 G/L AND SODIUM NITRITE 1 G/L IN DRINKING WATER 5 D/WK FOR 40 WK, Promoter: NONE USED): 12/37 (32%), 0/39 (0%), 100%, not calculated
- tumour outcome (control, treated, inhibition, significance) (Carcinogen: AMINOPYRENE, 1606-67-3, SODIUM NITRITE, 7632-00-0, Carcinogen: AMINOPYRENE, 1606-67-3, SODIUM NITRITE, 7632-00-0, Dose [Inhibitor]: 7 G/KG OF DIET FOR DURATION OF STUDY (STUDY DURATION: 40 WK), Route [Inhibitor]: ORAL, Species: RAT, Strain/Sex: SPRAGUE-DAWLEY/MALE, Target Tissue: Type of Lesion: LUNG: TUMORS, Dose [Carcinogen]: AMINOPYRENE 1 G/L AND SODIUM NITRITE 1 G/L IN DRINKING WATER 5 D/WK FOR 40 WK, Promoter: NONE USED): 25/37 (68%), 13/39 (33%), 51%, not calculated
- tumour outcome (control, treated, inhibition, significance) (Carcinogen: AMINOPYRENE, 1606-67-3, SODIUM NITRITE, 7632-00-0, Carcinogen: AMINOPYRENE, 1606-67-3, SODIUM NITRITE, 7632-00-0, Dose [Inhibitor]: 7 G/KG OF DIET FOR THE DURATION OF STUDY (STUDY DURATION: 40 WK), Route [Inhibitor]: ORAL, Species: RAT, Strain/Sex: SPRAGUE-DAWLEY/MALE, Target Tissue: Type of Lesion: KIDNEY: TUMORS, Dose [Carcinogen]: AMINOPYRINE 1 G/L AND SODIUM NITRITE 1 G/L IN DRINKING WATER 5 D/WK FOR 40 WK, Promoter: NONE USED): 10/37 (27%), 7/39 (18%), 33%, not calculated
- tumour outcome (control, treated, inhibition, significance) (Carcinogen: BENZO[A]PYRENE, 50-32-8, Dose [Inhibitor]: 0, 10 MG/ML IN DRINKING WATER FOR 6 WK (STUDY DURATION: 9 WK), Route [Inhibitor]: ORAL, Species: MOUSE, Strain/Sex: NIGP(S)/FEMALE, Target Tissue: Type of Lesion: LUNG: ADENOMA, Dose [Carcinogen]: 0.5 MG INJECTED IN THE SCAPULAR REGION OF NEWBORN MICE ONCE, Promoter: NONE USED): 56%, 35%, 38%, not calculated
- tumour outcome (control, treated, inhibition, significance) (Carcinogen: BENZO[A]PYRENE, 50-32-8, Dose [Inhibitor]: 0, 10 MG/ML IN DRINKING WATER FOR 6 WK (STUDY DURATION: 9 WK), Route [Inhibitor]: ORAL, Species: MOUSE, Strain/Sex: NIGP(S)/MALE, Target Tissue: Type of Lesion: LUNG: ADENOMA, Dose [Carcinogen]: 0.5 MG INJECTED IN THE SCAPULAR REGION OF NEWBORN MICE ONCE, Promoter: NONE USED): 38%, 24%, 37%, not calculated
- tumour outcome (control, treated, inhibition, significance) (Carcinogen: BENZO[A]PYRENE, 50-32-8, Dose [Inhibitor]: 0.068 MMOL/G IN DIET FOR 5 WK BEGINNING 1 WK PRIOR TO CARCINOGEN DOSE (STUDY DURATION: 21 WK), Route [Inhibitor]: ORAL, Species: MOUSE, Strain/Sex: ICR/HA/FEMALE, Target Tissue: Type of Lesion: FORESTOMACH: TUMOR, Dose [Carcinogen]: 1 MG IN 0.2 ML CORN OIL 2/WK FOR 4 WK, Promoter: NONE USED): 100%, 95%, 5%, not significant
- tumour outcome (control, treated, inhibition, significance) (Carcinogen: DIETHYLNITROSAMINE, 55-18-5, Dose [Inhibitor]: 0, 3 G/L IN DRINKING WATER BEGINNING 1 D PRIOR TO FIRST CARCINOGEN DOSE AND CONTINUING TO 2 D POST LAST CARCINOGEN DOSE, Route [Inhibitor]: ORAL, Species: RAT, Strain/Sex: BD6/FEMALE, Target Tissue: Type of Lesion: ESOPHAGUS: TUMOR, Dose [Carcinogen]: 80 MG/KG BW 1/WK FOR 8 WK, Promoter: NONE USED): 31%, 28%, 10%, not significant
